In US8889156B2, “Calcium-binding agents induce hair growth and/or nail growth” (priority 2009, dated 2014):
“Also recorded” adds a separate entry of the source.

Experiments:
[1] = Binding of labeled peptides to carious lesions in teeth (CLSM); design: species or system human; settings: labeled peptide, settings optimized per sample
Text: Sections of human teeth containing obvious carious lesions, which consist of demineralized enamel, were polished and exposed to 5(6)-carboxyfluorescein-labeled DSS peptides and variants. The sections were washed extensively and imaged by CLSM using blue laser illumination (A=488 nm) and a FITC emission filter, with microscope and camera settings adjusted for each sample to optimize the signal detected from each peptide. The images were examined to identify the relative levels of peptide binding in healthy versus carious tissue. […] Given their ability to remineralize at sites of enamel degradation, they can also be used to initiate remineralization at sites of enamel degradation such as caries or injury sites without causing inappropriate nucleation on healthy tissue surfaces.

[2] = DSS-mediated remineralization of demineralized tooth surfaces with Quell Desensitizer (SEM); design: species or system human; settings: peptide pretreatment 1 h, then Quell Desensitizer 15 min
Procedure: Adult human molars, extracted during normal clinical practice, were sagittally sectioned (Accutom-50, Copenhagen, Denmark; CA-231 diamond blade) and demineralized with 19% ethylenediaminotetraacetic acid (EDTA) gel for 1 h, followed by immersion in deionized water and ultrasonication to remove debris. Samples were treated with either 12.5 p.M 8DSS (SEQ ID NO:33) peptide in 50 mM HEPES buffer (pH 7.0) or buffer alone (no peptide) or were left untreated for 1 h prior to remineralization with Quell Desensitizer (Pentron Technologies, Wallingford, Conn.), a remineralization solution consisting of aqueous solutions of calcium chloride and potassium phosphate, for 15 min. Samples were rinsed thoroughly prior to imaging by scanning electron microscopy. Having established that (DSS)n-containing peptides can bind to the dentin surface and that immobilized peptides could cause the accretion of calcium phosphate, we sought to determine whether these peptides could be used to recruit calcium phosphate to the dentin surface. Demineralized sections of extracted human teeth were treated with 8DSS (SEQ ID NO:33) peptide and then subjected to remineralization with Quell Desensitizer (Pentron Technologies), a commercially available remineralization product consisting of aqueous solutions of calcium chloride and potassium phosphate.

[3] = HA binding assay (pulldown of fluorescein-labeled peptides, Langmuir isotherm fit); settings: fit of Langmuir equation
Procedure: Fluorescein-labeled DSS-containing peptides of various lengths were subjected to pulldown assays as follows: Samples containing varying concentrations of fluorescein-labeled peptide (0-100 μM) and a fixed amount (0.3 mg) of HA nanocrystals with a specific surface area of 100 m^2/g (Berkeley Advanced Biomaterials, Berkeley, Calif.) were prepared. Measurements were taken of the absorbance of the labeled peptide at 488 nm (the peak absorbance of the fluorescein label) before and after exposure to the HA. The amount of peptide bound was calculated by comparing the ratio of the final (Af) and initial (Ai) absorbances to the initial concentration (C0) [Cbound=(Af/Ai)C0]. Plots were generated of the amount of peptide bound per meter squared of HA surface area vs. concentration of unbound peptide at equilibrium. The resulting isotherms were fit to the Langmuir isotherm, x/m=(KANmaxCeq)/(1+KACeq), where x/m represents the molar amount of peptide bound per unit of HA surface area, KA is the affinity constant of the peptide for the HA surface (L/Mol), Nmax is the maximum surface concentration (mol/m^2), and Ceq is the molar concentration of unbound peptide at equilibrium (Calis et al. (1995) Pharm Res., 12: 1072-1076).
In order to quantitatively assess the strength of the DSS-HA interaction as well as to determine the roles of peptide length and sequence on binding, fluorescein-labeled, DSS-containing peptides of various lengths were subjected to pulldown assays as described in “Materials and Methods.”
The experimental data were fit to the Langmuir isotherm, which describes the binding of molecules to surfaces with the conditions that (1) all binding sites have the same affinity for the peptide and (2) the peptide will form a monolayer on the surface but cannot accumulate to higher levels (Atkins (1994) Physical chemistry. Freeman, New York). The excellent fit of the Langmuir isotherm to the experimental data validates these conditions, and the constants obtained from this analysis were used for comparisons between peptides. As shown in FIG. 7A and summarized in Table 6, both the binding affinity (KA) and the monolayer concentration (NMax) of the various peptides increased with the number of DSS repeats per peptide. Additionally, several variant peptides were tested (FIGS. 7B, 7C, Table 6): a peptide containing a longer side chain at the first position (4ESS (SEQ ID NO:34)), peptides containing a more sterically hindered hydroxyl group at the second and third positions (4DTT (SEQ ID NO:36), 4NTT (SEQ ID NO:38), 4ETT (SEQ ID NO:37)), peptides lacking a charged group at the first position (4NSS (SEQ ID NO:35), 8ASS (SEQ ID NO:26)), and peptides lacking hydroxyl groups at the second and third positions (DAA-8 (SEQ ID NO:40), 8NAA (SEQ ID NO:41)).

[4] = Nucleation of hydroxyapatite on tooth enamel (SBFn/SBFg, SEM); design: species or system human; settings: demineralized enamel, 12.5 μM peptide
Procedure: To determine whether applying DSS to various preparations of tissue promoted HA nucleation, that could ultimately lead to tissue remineralization, sagittally sectioned adult human teeth (obtained after extraction during normal clinical practice) were polished using a Streurs grinding wheel, and prepared for nucleation experiments. Half of the sections were demineralized with 35% phosphoric acid for 15 minutes, then rinsed thoroughly with deionized water. The other half were left untreated. All samples were then sonicated for five minutes to remove excess debris left from cutting and grinding and/or demineralization. Samples were treated with 12.5 μM 8DSS dissolved in 50 mM HEPES buffer solution (pH 7.0), buffer solution only, or left untreated. Samples were then immersed into a simulated body fluid (SBFn), meant to accelerate nucleation of hydroxyapatite (HA) crystals, for 4 hours. Following the nucleation step, samples were immersed in a magnesium and bicarbonate free solution (SBFg) in order to allow the nucleated HA crystals to grow. […] Both solutions were adjusted to pH 6.8. Crystals were grown in order to amplify the nucleated crystals for easy visualization by SEM.

In the case of “DSS DSS DSSDSS DSS DSS DSS DSS (DSSDSSDSSDSSDSSDSSDSSDSS; synthetic calcium-binding peptide 8DSS)”, the “specificity of binding to carious lesions versus healthy enamel” value [1] is reported as “highly specific binding to carious lesions”, the “strength of staining of carious lesions” value [1] is reported as “exceptionally strong staining of carious lesions” and the “mineral accumulation on demineralized dentin” value [2] is reported as “accumulated a continuous layer of calcium phosphate precipitate; also recorded: markedly enhanced the effectiveness of a commercially available remineralization product”. The “Nmax (maximum monolayer surface concentration)” value [3] was 8.2 × 10^−8 ± 6 × 10^−9 mol/m^2, the “KA (binding affinity for HA)” value ([3]; fluorescein-labeled peptide 0-100 μM, 0.3 mg HA nanocrystals) was 290,000 ± 70,000 M^−1 and the “crystal growth (nucleation) on enamel” value [4] was “significant crystal growth”.
